Patent US20120259092A1, “NPY ANTAGONISTS” (priority 2011, published 2012)
“Also recorded” adds a separate entry of the source. Bridge positions count the residues as written; N and C are the ends. Square brackets hold non-standard residues; d marks the D form. Peptide text beside a SMILES is read from it. I, II: the chains in the order shown. * marks the point of attachment. DOTA = O=C(O)CN1CCN(CC(=O)O)CCN(CC(=O)*)CCN(CC(=O)O)CC1; Nle = CCCC[C@H](N)C(=O)O

What was measured:
NPY Y1 [1] = biological target: T1, NPY Y1 (Homo sapiens, UniProt P25929); test: Adenylate cyclase activity (forskolin-stimulated cAMP accumulation) flashplate assay in SK-N-MC cells; format: cell-based; details: for Activity Y1-cAMP (SK-N-MC): agonistic or antagonistic property: SK-N-MC cells
T1 construct: SK-N-MC cells endogenously expressing Y1; host or cells: SK-N-MC
T1 sequence (P25929 1-384): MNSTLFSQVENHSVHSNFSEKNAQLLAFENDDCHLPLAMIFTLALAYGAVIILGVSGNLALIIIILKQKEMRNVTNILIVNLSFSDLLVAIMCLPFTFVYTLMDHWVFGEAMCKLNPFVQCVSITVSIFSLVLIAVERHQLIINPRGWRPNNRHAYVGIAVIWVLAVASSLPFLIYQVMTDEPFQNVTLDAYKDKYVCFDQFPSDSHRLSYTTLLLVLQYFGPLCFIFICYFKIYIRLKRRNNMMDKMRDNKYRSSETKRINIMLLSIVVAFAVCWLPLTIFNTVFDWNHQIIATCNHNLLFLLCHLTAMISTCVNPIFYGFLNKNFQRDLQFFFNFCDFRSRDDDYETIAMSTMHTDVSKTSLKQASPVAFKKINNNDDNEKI
Method: Cells were incubated for 30 min with 10 μM forskolin in the presence of [Leu^31-Pro^34]-PYY (LP-PYY) at concentrations ranging between 0.01 nM and 20 μM alone ([…]) or with 10 μM forskolin in the presence of LP-PYY at concentrations ranging between 0.01 nM and 20 μM supplemented with a fixed concentration of 20 μM of the analog Peptide No. 11 (▪). […] Peptide No. 11 given alone has no effect on the accumulation of forskolin-stimulated cAMP (▴).
Adenylate cyclase activity with respect to NPY Y1 was determined in SK-N-MC cells using the adenylate cyclase activation flashplate assay (SMP004) from PerkinElmer. SK-N-MC cells were seeded in 96-well culture plates at 25,000 cells/well and cultured for 48 h at 37° C. and 5% CO2. Culture medium was then removed from the wells and fresh medium (100 μL) containing 0.5 mM 3-isobutyl-1-methylxanthine (IBMX) was added to each well. Cells were incubated for 30 min at 37° C. Medium was then removed and replaced with fresh medium containing 0.5 mM IBMX, with or without 10 μM forskolin and various concentrations of the peptides to be analyzed. Cells were incubated for 30 min at 37° C. After removal of the medium, cells were lysed and cAMP accumulation was determined using the SMP004 kit from PerkinElmer.
Because the addition of a DOTA moiety can change the functional characteristics of a compound, as recently shown in the somatostatin receptor field for sst3, compounds having a high or moderate Y1 affinity were analyzed in an adenylate cyclase activity assay for their agonistic or antagonistic properties. […] Given alone at a high concentration of 20 μM, they were unable to inhibit forskolin-stimulated cAMP accumulation but they efficiently antagonized the agonistic effect of 100 nM [Leu^31, Pro^34]-hPYY. […] The conclusion is that the DOTA-conjugated compound, i.e. Peptide No. 11, with its high binding affinity and its antagonist property represents an excellent candidate for in vivo tumor targeting.

NPY Y1 [2] = biological target: T1, NPY Y1; test: Receptor autoradiography binding, 125I-hPYY displacement on SK-N-MC cell membrane pellet sections; details: for Displacement of 125I-hPYY (FIG. 2): SK-N-MC cell line, competition experiments; for IC50: SK-N-MC membrane pellet sections, 125I-hPYY, read-out: Binding affinity (IC50 nM) Y1 (SK-N-MC)
Method: Testing of Peptides 1-11 was carried out using specific cell lines. The neuroepithelioma cell line SK-N-MC endogenously expressing the NPY Y1 receptor was obtained from ATCC (HTB-10; LGC Standards, Teddington, Middlesex, UK). Cells were cultured at 37° C. and 5% CO2 in MEM medium with GlutaMax I and supplemented with 10% FBS, 100 U/ml penicillin and 100 μg/ml streptomycin, 1 mM MEM sodium pyruvate, and MEM non-essential amino acids (1×). The neuroblastoma cell line SH-SY5Y endogenously expressing the NPY Y2 receptor, was provided by Dr. Paolo Paganetti (Novartis, Basel, Switzerland). Cells were cultured at 37° C. and 5% CO2 in MEM/Ham's F12 with GlutaMax I and supplemented with 10% FBS, 100 U/ml penicillin and 100 μg/ml streptomycin, 1 mM MEM sodium pyruvate, and MEM non-essential amino acids (1×).
Binding affinities of the compounds were assessed using sections of cell membrane pellets of SK-N-MC for NPY Y1 or SH-SY5Y for NPY Y2. Briefly, membrane pellets were prepared and stored at −80° C., and receptor autoradiography was performed on 20-μm thick cryostat sections of the membrane pellets, mounted on microscope slides and stored at −20° C. The slides were preincubated in Krebs-Ringer solution (NaCl 119 mM, KCl 3.2 mM, KH2PO4 1.19 mM, MgSO4 1.19 mM, NaHCO3 25 mM, CaCl2 2.53 mM, D-glucose 10 mM; pH 7.4) for 60 min at room temperature. Then, they were incubated for 120 min in Krebs-Ringer solution containing 0.1% BSA, 0.05% bacitracin, and 10 000 cpm/100 μl of the ^125I-labeled human PYY alone or with increasing concentrations ranging from 0.1 nM up to 1000 nM of non-labeled hPYY, as control, or with the compounds to be tested. After the incubation, the slides were washed two times for 5 min and then rinsed four times in ice-cold preincubation solution. After drying, the slides were exposed to Kodak films Biomax MR® for 7 days. IC50 values were calculated after quantification of the data using a computer-assisted image processing system. Tissue standards containing known amount of isotope, cross-calibrated to tissue-equivalent ligand concentrations were used for quantification.
The DOTA-free and DOTA-coupled analogs listed in Table 1 were analyzed in receptor autoradiography experiments for NPY Y1 and Y2 receptor binding affinities on SK-N-MC cells endogenously expressing Y1 and SH-SY5Y cells endogenously expressing Y2, respectively. Pharmacological displacement experiment using SK-N-MC cell membrane pellet sections for Peptides Nos. 9, 10 and 11 are shown in FIG. 2. The addition of two DOTA moieties to the homodimeric analogs decreases the Y1 binding affinity up to 2-30 fold.

| Compound | Activity Y1-cAMP (SK-N-MC): agonistic or antagonistic property (NPY Y1 [1]; 10 μM forskolin) | Effect on forskolin-stimulated cAMP accumulation, given alone (NPY Y1 [1]; peptide alone, 20 μM, 10 μM forskolin) | Effect on dose response curve of [Leu31,Pro34]-PYY (LP-PYY) (NPY Y1 [1]; peptide fixed at 20 μM, with increasing LP-PYY, 10 μM forskolin, 30 min) | Displacement of 125I-hPYY (FIG. 2) (NPY Y1 [2]) | IC50 (NPY Y1 [2]) | Inhibition of forskolin-stimulated cAMP accumulation (agonist control) (NPY Y1 [1]; applied at 20 μM and 100 nM) |
| --- | --- | --- | --- | --- | --- | --- |
| CCCC[C@H](NC(=O)[C@H](CCCNC(=N)N)NC(=O)[C@H](Cc1c[nH]c2ccccc12)NC(=O)[C@H](CSSC[C@H](NC(=O)[C@@H]1CCCN1C(=O)[C@H](CC(N)=O)NC(=O)[C@@H](N)[C@@H](C)CC)C(=O)N[C@@H](Cc1c[nH]c2ccccc12)C(=O)N[C@@H](CCCNC(=N)N)C(=O)N[C@@H](CCCC)C(=O)N[C@@H](CCCNC(=N)N)C(=O)N[C@@H](Cc1ccc(O)cc1)C(N)=O)NC(=O)[C@@H]1CCCN1C(=O)[C@H](CCCCNC(=O)CN1CCN(CC(=O)O)CCN(CC(=O)O)CCN(CC(=O)O)CC1)NC(=O)[C@@H](N)[C@@H](C)CC)C(=O)N[C@@H](CCCNC(=N)N)C(=O)N[C@@H](Cc1ccc(O)cc1)C(N)=O [Peptide No. 11] (I: H-IK(DOTA)PCWR[Nle]RY-NH2 / II: H-INPCWR[Nle]RY-NH2; disulfide I:4-II:4) | Antagonist | no effect | shifts the dose response curve of LP-PYY to the right; also recorded: shift the dose response curve of [Leu^31, Pro^34]-hPYY to the right | high affinity displacements | 13 nM | – |
| CC[C@H](C)[C@H](NC(=O)CN1CCN(CC(=O)O)CCN(CC(=O)O)CCN(CC(=O)O)CC1)C(=O)N[C@@H](CC(N)=O)C(=O)N1CCC[C@H]1C(=O)N[C@@H](CSSC[C@H](NC(=O)[C@@H]1CCCN1C(=O)[C@H](CC(N)=O)NC(=O)[C@@H](NC(=O)CN1CCN(CC(=O)O)CCN(CC(=O)O)CCN(CC(=O)O)CC1)[C@@H](C)CC)C(=O)N[C@@H](Cc1ccc(O)cc1)C(=O)N[C@@H](CCCNC(=N)N)C(=O)N[C@@H](CC(C)C)C(=O)N[C@@H](CCCNC(=N)N)C(=O)N[C@@H](Cc1ccc(O)cc1)C(N)=O)C(=O)N[C@@H](Cc1ccc(O)cc1)C(=O)N[C@@H](CCCNC(=N)N)C(=O)N[C@@H](CC(C)C)C(=O)N[C@@H](CCCNC(=N)N)C(=O)N[C@@H](Cc1ccc(O)cc1)C(N)=O [compound 2] (I: {DOTA}-INPCYRLRY-NH2 / II: {DOTA}-INPCYRLRY-NH2; disulfide I:4-II:4) | Antagonist | – | – | – | 143 ± 37 nM | – |
| CCCC[C@H](NC(=O)[C@H](CCCNC(=N)N)NC(=O)[C@H](Cc1c[nH]c2ccccc12)NC(=O)[C@H](CSSC[C@H](NC(=O)[C@@H]1CCCN1C(=O)[C@H](CC(N)=O)NC(=O)[C@@H](NC(=O)CN1CCN(CC(=O)O)CCN(CC(=O)O)CCN(CC(=O)O)CC1)[C@@H](C)CC)C(=O)N[C@@H](Cc1c[nH]c2ccccc12)C(=O)N[C@@H](CCCNC(=N)N)C(=O)N[C@@H](CCCC)C(=O)N[C@@H](CCCNC(=N)N)C(=O)N[C@@H](Cc1ccc(O)cc1)C(N)=O)NC(=O)[C@@H]1CCCN1C(=O)[C@H](CC(N)=O)NC(=O)[C@@H](NC(=O)CN1CCN(CC(=O)O)CCN(CC(=O)O)CCN(CC(=O)O)CC1)[C@@H](C)CC)C(=O)N[C@@H](CCCNC(=N)N)C(=O)N[C@@H](Cc1ccc(O)cc1)C(N)=O [compound 4] (I: {DOTA}-INPCWR[Nle]RY-NH2 / II: {DOTA}-INPCWR[Nle]RY-NH2; disulfide I:4-II:4) | Antagonist | – | – | – | 294 ± 33 nM | – |
| [Leu^31, Pro^34]-hPYY [reference compound] | – | – | – | – | – | efficiently inhibited forskolin-stimulated cAMP accumulation |
| hPYY: non-labeled human peptide YY, used as control in binding competition [reference compound] | – | – | – | high affinity displacements | – | – |
